Laboratory results from the NIST ThermoML archive (doi:10.1021/je060271a).

Conditions: Liquid, Vibrating tube method

CCCCC(=O)OCC(COC(=O)CCCC)(COC(=O)CCCC)COC(=O)CCCC [pentaerythritol tetrapentanoate]
Conditions | mass density [kg/m3]
303.15 K, 29848 kPa | 1028.9
303.15 K, 29879 kPa | 1028.8
303.15 K, 29916 kPa | 1029
303.15 K, 29948 kPa | 1028.9
303.15 K, 29979 kPa | 1029
303.15 K, 30016 kPa | 1028.9
303.15 K, 30047 kPa | 1028.9
303.15 K, 30079 kPa | 1029
303.15 K, 30118 kPa | 1029
303.15 K, 30150 kPa | 1029.1
303.15 K, 30185 kPa | 1029
303.15 K, 30217 kPa | 1029
303.15 K, 30249 kPa | 1029.1
303.15 K, 30286 kPa | 1029
303.15 K, 30319 kPa | 1029.1
303.15 K, 30352 kPa | 1029.1
303.15 K, 30390 kPa | 1029
303.15 K, 30423 kPa | 1029.2
303.15 K, 30461 kPa | 1029.1
303.15 K, 30493 kPa | 1029.2
303.15 K, 30526 kPa | 1029.2
303.15 K, 30566 kPa | 1029.2
303.15 K, 30598 kPa | 1029.2
303.15 K, 30631 kPa | 1029.2
303.15 K, 30665 kPa | 1029.4
303.15 K, 30705 kPa | 1029.3
303.15 K, 30738 kPa | 1029.3
303.15 K, 30777 kPa | 1029.3
303.15 K, 30810 kPa | 1029.3
303.15 K, 30844 kPa | 1029.4
303.15 K, 30884 kPa | 1029.4
303.15 K, 30917 kPa | 1029.4
303.15 K, 30951 kPa | 1029.4
303.15 K, 30991 kPa | 1029.5
303.15 K, 31025 kPa | 1029.5
303.15 K, 31060 kPa | 1029.6
303.15 K, 31101 kPa | 1029.5
303.15 K, 31135 kPa | 1029.5
303.15 K, 31170 kPa | 1029.5
303.15 K, 31204 kPa | 1029.6
303.15 K, 31246 kPa | 1029.7
303.15 K, 31280 kPa | 1029.5
303.15 K, 31315 kPa | 1029.6
303.15 K, 31350 kPa | 1029.6
303.15 K, 31392 kPa | 1029.7
303.15 K, 31427 kPa | 1029.7
303.15 K, 31462 kPa | 1029.8
303.15 K, 31504 kPa | 1029.8
303.15 K, 31540 kPa | 1029.7
303.15 K, 31576 kPa | 1029.8
303.15 K, 31610 kPa | 1029.8
303.15 K, 31653 kPa | 1029.9
303.15 K, 31688 kPa | 1029.9
303.15 K, 31731 kPa | 1029.9
303.15 K, 31767 kPa | 1029.8
303.15 K, 31803 kPa | 1029.9
303.15 K, 31846 kPa | 1030
303.15 K, 31882 kPa | 1030
303.15 K, 31918 kPa | 1029.9
303.15 K, 31954 kPa | 1030
303.15 K, 31996 kPa | 1030
303.15 K, 32033 kPa | 1030
303.15 K, 32078 kPa | 1030.1
303.15 K, 32115 kPa | 1030.2
303.15 K, 32152 kPa | 1030.1
303.15 K, 32188 kPa | 1030.1
303.15 K, 32232 kPa | 1030.1
303.15 K, 32269 kPa | 1030.2
303.15 K, 32306 kPa | 1030.2
303.15 K, 32351 kPa | 1030.4
303.15 K, 32387 kPa | 1030.3
303.15 K, 32432 kPa | 1030.3
303.15 K, 32470 kPa | 1030.3
303.15 K, 32507 kPa | 1030.3
303.15 K, 32544 kPa | 1030.2
303.15 K, 32590 kPa | 1030.4
303.15 K, 32628 kPa | 1030.3
303.15 K, 32667 kPa | 1030.6
303.15 K, 32714 kPa | 1030.4
303.15 K, 32752 kPa | 1030.4
303.15 K, 32798 kPa | 1030.6
303.15 K, 32838 kPa | 1030.5
303.15 K, 32877 kPa | 1030.5
303.15 K, 32926 kPa | 1030.5
303.15 K, 32968 kPa | 1030.5
303.15 K, 33012 kPa | 1030.6
303.15 K, 33064 kPa | 1030.6
303.15 K, 33109 kPa | 1030.6
303.15 K, 33144 kPa | 1030.7
303.15 K, 33166 kPa | 1030.7
303.15 K, 33187 kPa | 1030.7
303.15 K, 33214 kPa | 1030.8
303.15 K, 33237 kPa | 1030.6
303.15 K, 33258 kPa | 1030.7
303.15 K, 33284 kPa | 1030.8
303.15 K, 33307 kPa | 1030.8
303.15 K, 33354 kPa | 1030.8
303.15 K, 33377 kPa | 1030.7
303.15 K, 33404 kPa | 1030.7
303.15 K, 33423 kPa | 1030.9
303.15 K, 33449 kPa | 1030.8
303.15 K, 33472 kPa | 1030.7
303.15 K, 33494 kPa | 1030.9
303.15 K, 33521 kPa | 1030.8
303.15 K, 33544 kPa | 1030.8
303.15 K, 33594 kPa | 1030.9
303.15 K, 33616 kPa | 1030.9
303.15 K, 33643 kPa | 1031
303.15 K, 33666 kPa | 1031
303.15 K, 33687 kPa | 1031
303.15 K, 33715 kPa | 1030.9
303.15 K, 33740 kPa | 1031
303.15 K, 33763 kPa | 1031
303.15 K, 33790 kPa | 1031.1
303.15 K, 33813 kPa | 1031
303.15 K, 33836 kPa | 1031
303.15 K, 33862 kPa | 1031
303.15 K, 33886 kPa | 1031.1
303.15 K, 33911 kPa | 1031
303.15 K, 33938 kPa | 1031.1
303.15 K, 33963 kPa | 1031
303.15 K, 33987 kPa | 1031.2
303.15 K, 34014 kPa | 1031.2
303.15 K, 34041 kPa | 1031.1
303.15 K, 34066 kPa | 1031.2
303.15 K, 34091 kPa | 1031.2
303.15 K, 34122 kPa | 1031.2
303.15 K, 34148 kPa | 1031.3
303.15 K, 34176 kPa | 1031.2
303.15 K, 34209 kPa | 1031.1
303.15 K, 34236 kPa | 1031.2
303.15 K, 34272 kPa | 1031.3
303.15 K, 34293 kPa | 1031.3
303.15 K, 34298 kPa | 1031.3
303.15 K, 34306 kPa | 1031.3
303.15 K, 34335 kPa | 1031.4
303.15 K, 34345 kPa | 1031.4
303.15 K, 34355 kPa | 1031.4
303.15 K, 34361 kPa | 1031.3
303.15 K, 34369 kPa | 1031.2
303.15 K, 34375 kPa | 1031.4
303.15 K, 34382 kPa | 1031.4
303.15 K, 34388 kPa | 1031.3
303.16 K, 663.45 kPa | 1011.3
303.16 K, 665.18 kPa | 1011.4
303.16 K, 666.06 kPa | 1011.3
303.16 K, 670.92 kPa | 1011.3
303.16 K, 671.95 kPa | 1011.3
303.16 K, 672.66 kPa | 1011.2
303.16 K, 673.71 kPa | 1011.2
303.16 K, 674.57 kPa | 1011.2
303.16 K, 683.79 kPa | 1011.3
303.16 K, 684.84 kPa | 1011.3
303.16 K, 687.26 kPa | 1011.2
303.16 K, 700.64 kPa | 1011.3
303.16 K, 702.03 kPa | 1011.2
303.16 K, 702.73 kPa | 1011.4
303.16 K, 732.61 kPa | 1011.3
303.16 K, 790.98 kPa | 1011.3
303.16 K, 792.36 kPa | 1011.4
